“Also recorded” adds a separate entry of the source.
Legend:
[1] = target: T1, phosphatase domain of human SHP2 (Homo sapiens, UniProt Q06124); assay: SHP2 enzymatic assay (DiFMUP), phosphatase domain; assay type: biochemical; conditions: at up to 50 μM
T1 construct: phosphatase domain of human SHP2 (amino acid Ala237-Ile529); 6xHis (TEV site) (N, cleaved yes); made in house; host or cells: E. coli BL21 (DE3)
Method: Protein purification: The recombinant DNA for full-length human SHP2 (amino acid 1-597) or the phosphatase domain of human SHP2 (amino acid Ala237-Ile529) was cloned into a pET30 vector (Sigma #69909-3), which was modified to contain a TEV protease site after the N-terminal 6×His tag. The expression vector was transformed into E. coli BL21 (DE3) (NEB #C2527H). The protein was expressed and purified by the following procedure. Bacterial cells from a 50 mL overnight culture were inoculated in 6 L of terrific broth media. Once the E. coli culture reached an OD600 of 0.7, the temperature was lowered to 18° C. and recombinant protein expression was induced by the addition of 0.5 mM IPTG. After overnight incubation, the cells were harvested by centrifugation at […] for 45 min in a Sorvall Lynx 6000 (Thermo Fisher) centrifuge with F9-6×1000 LEX rotor. The cell pellets were stored at −80° C. until purification. […] The final product was 98% pure as determined by SDS-PAGE. The concentration of SHP2 protein was determined from the absorbance at 280 nm wavelength, using the calculated molar extinction coefficient for SHP2 protein of 72770 M^−1 cm^−1.
SHP2 enzymatic assay: Phosphatase activity of full-length human SHP2 wild-type enzyme or SHP2 phosphatase domain was measured using fluorogenic 6,8-difluoro-4-methylumbelliferyl phosphate (DiFMUP; Molecular Probes #D6567) as the substrate. […]

human SHP-1 = target: T2, human SHP-1 (Homo sapiens, UniProt P29350); assay: Eurofins Panlabs spectrofluorimetric phosphatase assay; assay type: biochemical; conditions: 10 μM
T2 construct: a panel of 14 full-length human phosphatases; purchased Eurofins Panlabs
T2 sequence (P29350 whole entry): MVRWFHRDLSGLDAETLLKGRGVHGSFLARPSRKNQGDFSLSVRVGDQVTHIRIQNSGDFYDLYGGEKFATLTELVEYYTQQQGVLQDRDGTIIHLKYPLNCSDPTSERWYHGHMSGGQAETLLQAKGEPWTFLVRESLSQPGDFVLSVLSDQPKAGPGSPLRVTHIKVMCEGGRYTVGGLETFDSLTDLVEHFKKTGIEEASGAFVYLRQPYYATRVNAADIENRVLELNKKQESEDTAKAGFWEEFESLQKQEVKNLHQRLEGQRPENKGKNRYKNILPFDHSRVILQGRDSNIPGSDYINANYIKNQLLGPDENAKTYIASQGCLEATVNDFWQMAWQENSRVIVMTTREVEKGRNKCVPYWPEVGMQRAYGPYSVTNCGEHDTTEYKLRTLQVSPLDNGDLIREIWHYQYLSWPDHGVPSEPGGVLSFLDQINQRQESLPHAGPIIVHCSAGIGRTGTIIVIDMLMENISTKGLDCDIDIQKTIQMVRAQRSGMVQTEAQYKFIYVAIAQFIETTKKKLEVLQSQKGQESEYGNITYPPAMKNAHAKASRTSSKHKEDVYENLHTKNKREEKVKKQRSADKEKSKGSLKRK
Method: The activity of Compound (10b) was also assessed against a panel of 14 full-length human phosphatases using spectrofluorimetric biochemical assays. These assays were conducted using the Eurofins Panlabs platform.

HCC827 = assay: pERK protein levels (HTRF); assay type: cell-based; conditions: Homo sapiens; HCC827, EGFR^Ex19del
Method: (§1) The potency of Compound (10b) in a panel of human tumor cell lines with active MAPK signaling was assessed. Cell viability in a 3D culture system was assessed by measuring CellTiter-Glo (CTG) luminescence following 8 days of treatment with nine concentrations of Compound (10b). MAPK pathway signaling was assessed by measuring pERK protein levels and DUSP6 mRNA levels by homogeneous time resolved fluorescence (HTRF) and quantitative polymerase chain reaction (qPCR), respectively. […] These viability effects correlated with pERK inhibition (Table 2, FIG. 6B) and DUSP6 inhibition (FIG. 6C).

KYSE-520 = assay: pERK protein levels (HTRF); assay type: cell-based; conditions: Homo sapiens; KYSE-520, EGFR^amp
Method: as §1

NCI-H1299 = assay: pERK protein levels (HTRF); assay type: cell-based; conditions: Homo sapiens; NCI-H1299, NRAS^Q61K
Method: as §1

NCI-H1975 = assay: pERK protein levels (HTRF); assay type: cell-based; conditions: Homo sapiens; NCI-H1975, EGFR^L858R/T790M
Method: as §1

NCI-H358 = assay: pERK protein levels (HTRF); assay type: cell-based; conditions: Homo sapiens; NCI-H358, KRAS^G12C
Method: as §1

hERG potassium channel = hERG potassium channel (Homo sapiens, UniProt Q12809); assay: hERG manual whole cell patch clamp in CHO cells
Sequence of hERG potassium channel (Q12809 whole entry): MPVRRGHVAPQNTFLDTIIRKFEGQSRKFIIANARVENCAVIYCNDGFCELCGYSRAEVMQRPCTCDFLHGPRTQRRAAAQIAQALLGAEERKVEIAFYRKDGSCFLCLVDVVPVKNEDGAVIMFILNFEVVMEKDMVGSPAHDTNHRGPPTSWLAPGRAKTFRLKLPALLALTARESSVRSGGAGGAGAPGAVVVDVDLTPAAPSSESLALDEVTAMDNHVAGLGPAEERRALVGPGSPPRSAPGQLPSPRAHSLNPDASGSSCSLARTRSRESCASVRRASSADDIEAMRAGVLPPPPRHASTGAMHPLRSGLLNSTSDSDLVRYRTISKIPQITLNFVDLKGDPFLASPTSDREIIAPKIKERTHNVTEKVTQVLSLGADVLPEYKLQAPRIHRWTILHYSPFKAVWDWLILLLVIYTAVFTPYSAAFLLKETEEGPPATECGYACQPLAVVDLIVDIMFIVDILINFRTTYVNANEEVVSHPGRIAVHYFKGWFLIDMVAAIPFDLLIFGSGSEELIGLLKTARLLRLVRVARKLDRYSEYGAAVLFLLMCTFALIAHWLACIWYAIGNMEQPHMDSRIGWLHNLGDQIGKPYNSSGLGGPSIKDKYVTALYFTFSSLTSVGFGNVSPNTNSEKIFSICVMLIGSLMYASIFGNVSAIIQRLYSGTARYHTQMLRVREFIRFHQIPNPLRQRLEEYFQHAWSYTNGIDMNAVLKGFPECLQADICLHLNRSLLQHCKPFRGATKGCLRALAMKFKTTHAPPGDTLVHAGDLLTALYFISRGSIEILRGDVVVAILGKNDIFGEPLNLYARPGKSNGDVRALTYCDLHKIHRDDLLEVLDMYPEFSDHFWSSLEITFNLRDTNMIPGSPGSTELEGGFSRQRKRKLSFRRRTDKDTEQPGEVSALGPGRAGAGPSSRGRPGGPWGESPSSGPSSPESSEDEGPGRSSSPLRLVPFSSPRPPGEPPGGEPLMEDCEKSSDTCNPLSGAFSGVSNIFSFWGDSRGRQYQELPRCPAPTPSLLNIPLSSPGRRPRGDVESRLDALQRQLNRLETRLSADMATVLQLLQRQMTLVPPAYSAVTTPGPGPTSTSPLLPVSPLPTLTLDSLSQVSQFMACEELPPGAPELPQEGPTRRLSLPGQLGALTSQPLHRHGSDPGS
Method: HERG channel currents were recorded from single cells using standard whole cell recording techniques. The cells were voltage clamped at a holding potential of −80 mV. The hERG current was activated by depolarizing at +20 mV for 5 sec, after which the current was taken back to −50 mV for 5 sec to remove the inactivation and observe the deactivating tail current. The K+ tail current through HERG channels observed during this step was allowed to stabilize under continuous bath perfusion. […] Steady state was considered reached when three consecutive super-imposable current records were collected.

T1 sequence (Q06124 237-529): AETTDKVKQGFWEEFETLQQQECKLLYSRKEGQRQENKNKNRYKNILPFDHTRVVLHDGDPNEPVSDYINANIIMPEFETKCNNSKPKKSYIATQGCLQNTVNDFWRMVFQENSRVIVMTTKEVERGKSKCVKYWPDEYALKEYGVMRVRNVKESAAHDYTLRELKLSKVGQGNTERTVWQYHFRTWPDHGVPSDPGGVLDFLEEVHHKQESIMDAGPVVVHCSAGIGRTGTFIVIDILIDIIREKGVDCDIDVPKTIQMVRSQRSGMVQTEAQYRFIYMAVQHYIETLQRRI

SMILES: Cc1c(N2CCC3(CC2)CO[C@@H](C)[C@H]3N)nc(C)n(-c2cccc(Cl)c2Cl)c1=O (atropisomer, axis not shown; (Ra)) [Compound (10b), 6-((3S,4S)-4-amino-3-methyl-2-oxa-8-azaspiro[4.5]decan-8-yl)-3-(Ra)-(2,3-dichlorophenyl)-2,5-dimethylpyrimidin-4(3H)-one]
- suppression of enzymatic activity of SHP2 phosphatase domain [1]: did not suppress; also recorded: does not suppress
- inhibition of human SHP-1 (human SHP-1): did not demonstrate any inhibition
- IC50 (HCC827): 460 nM
- IC50 (KYSE-520): 73 nM
- IC50 (NCI-H1299): > 25000 nM
- IC50 (NCI-H1975): 400 nM
- IC50 (NCI-H358): 480 nM
- IC50 (hERG potassium channel): > 100000 nM
- inhibition of hERG activity relative to vehicle control (hERG potassium channel; 100 μM): 25.7%
- effect on hERG channel activity (hERG potassium channel; 0.3 to 30 μM): no effect
